Reference: patent US20030083374A1, “NAALADase inhibitors useful as pharmaceutical compounds and compositions” (priority 1998, published 2003)

Legend:
[1] = system: STZ-induced diabetic rats; experiment: in vivo assay on neuropathic pain in STZ-diabetic rats (Hargreaves); parameters: species or system Male Sprague-Dawley rats; conditions: 10 mg/kg i.p. daily, started 45 days post-STZ
Procedure: Male Sprague-Dawley rats (200-225 g) were rendered diabetic by intravenous administration of streptozotocin (STZ, 70 mg/kg in phosphate buffered saline). Diabetic animals were divided into five groups: one group receiving Compound 2 (10 mg/kg or 1 mg/kg), Compound 1 (10 mg/kg or 1 mg/kg) or vehicle. Another group of animals (non-STZ treated) served as non-diabetic controls. Drug/vehicle treatment was started in diabetic animals 45 days post-STZ administration. STZ-induced diabetic rats were tested for sensitivity to a heat source as soon as blood glucose levels rose to 320 mg/dl or above (30 days post STZ). The rats were then acclimated to the Hargreaves apparatus and thermal nociception was monitored using an infrared heat source directed into the […] surface of the hindpaw, and the time taken for the animal to remove its paw noted to the nearest 0.1 seconds (see Hargreaves et al. 1998 for detailed method). The intensity of the beam source was adjusted such that the mean latency for control animals (non-STZ treated) was approximately 10 seconds. Each animal was tested 8 times and the mean difference score (between mean non-diabetic control latency and mean diabetic latency) are graphically presented in FIGS. 19A and 19B.

[2] = system: acetic acid (0.6%) induced writhing; experiment: acetic acid model of pain (writhing); format: in vivo, mice; conditions: pretreated
Excerpt: One source of neuronal glutamate is thought to derive from the abundant neuropeptide NAAG which is hydrolyzed by NAALADase to liberate free glutamate. The inventors hypothesized that inhibition of NAALADase could limit pain by preventing this source of glutamate. To test this hypothesis, the inventors examined the possible antinocipetive effects of several NAALADase inhibitors in the formalin-, acetic acid- and chronic constrictive injury (CCI; “Bennett model”) models of pain. […] On day 7, 5% formalin was injected into the dorsum of the rat's hindpaw.

BB/W diabetic rats = experiment: nerve conduction velocity in BB/W diabetic rats; format: in vivo, Male BB/W rats; conditions: 10 mg/kg daily; starting at 8 weeks, through six months
Excerpt: Male BB/W rats (BR1, Mass) spontaneously develop a cell mediated autoimmune destruction of pancreatic B cells, resulting in onset of insulin-dependent (Type I) diabetes (Guberski 1994). […] This renders them valuable for experimental trials of new compounds for future treatments of this major disorder. In the present study, Compound 1 and Compound 2 were examined for their ability to alter the progression of diabetic neuropathy. The rats received daily injection of Compound 1 or Compound 2 (10 mg/kg i.p.) or vehicle, starting at the onset of diabetes (hyperglycemia) and up to 6 months thereafter. Another group of non-diabetic rats also receiving vehicle were tested. All animals were continuously monitored for body weight, urine volume, blood sugar and glycated haemoglobin. In the first month of the study, all animals were tested for thermal nociception in a Hargreaves apparatus, weekly. After the first month this was done biweekly and then monthly. The testing consists of directing an infrared heat source onto the […] surface of the rat hindpaw and noting the time taken for the animal to remove its paw (for detailed method see Hargreaves et al. 1998). […]
Nerve conduction velocity was also measured every two weeks through the first eight weeks of treatment and every month thereafter through to the six months of treatment (see De Koning et al. 1987 for method details). […]

cortical cell cultures = experiment: in vitro assay of NAALADase inhibitors on ischemia in cortical cell cultures; format: cell-based; conditions: concentration required to cause a 50% reduction in glutamate toxicity following an ischemic insult (potassium cyanide and 2-deoxyglucose)
Excerpt: Some results are set forth in U.S. Pat. Nos. 5,672,592, 5,795,877, 5,863,536, 5,880,112 and 5,902,817, allowed U.S. patent application Ser. Nos. 08/825,997, 08/833,628, 08/842,360 and 08/899,319 for which the issue fees have been paid, the entire contents of which patents and applications are herein incorporated by reference. Other results are provided below in TABLE III.

O=C(O)CCC(CCS)C(=O)O (stereo not shown) [Compound 1, 2-(2-sulfanylethyl)pentanedioic acid]
hyperalgesic response in diabetic rats [1]: completely reversed | acetic acid (0.6%) induced writhing vs. vehicle control [2]: significantly attenuated | nerve conduction deficits vs. diabetic controls receiving vehicle (BB/W diabetic rats): significantly less severe nerve conduction deficits | EC50 (cortical cell cultures): 2 nM
